PubChem BioAssay AID1259407 (Chemical Carcinogenesis Research Information System (CCRIS), 2018)
The source made the active and inactive calls. How the calls were made is not given here.

System: CCRIS mutagenicity, Ames/micronucleus/aberration tests
Test: CCRIS mutagenicity studies
[1] = Test System: AMES SALMONELLA TYPHIMURIUM, Strain/Indicator: TA97, Metabolic Activation: NONE, Method: PREINCUBATION
[2] = Test System: AMES SALMONELLA TYPHIMURIUM, Strain/Indicator: TA98, Metabolic Activation: NONE, Method: PREINCUBATION
[3] = Test System: AMES SALMONELLA TYPHIMURIUM, Strain/Indicator: TA100, Metabolic Activation: NONE, Method: PREINCUBATION
[4] = Test System: AMES SALMONELLA TYPHIMURIUM, Strain/Indicator: TA1535, Metabolic Activation: NONE, Method: PREINCUBATION
[5] = Test System: CHINESE HAMSTER V-79, Strain/Indicator: V-79/8-AZAGUANINE, Metabolic Activation: NONE
[6] = Test System: AMES SALMONELLA TYPHIMURIUM, Strain/Indicator: TA100, Metabolic Activation: NONE, Method: STANDARD PLATE

## C=C(CC)C(=O)c1ccc(OCC(=O)O)c(Cl)c1Cl
Test System: AMES SALMONELLA TYPHIMURIUM, Strain/Indicator: TA97, Metabolic Activation: HAMSTER, LIVER, S-9, AROCLOR 1254 (10 OR 30%), Method: PREINCUBATION
  mutagenic call: inactive; negative
[1]
  mutagenic call: inactive; negative
Test System: AMES SALMONELLA TYPHIMURIUM, Strain/Indicator: TA97, Metabolic Activation: RAT, LIVER, S-9, AROCLOR 1254 (10 OR 30%), Method: PREINCUBATION
  mutagenic call: inactive; negative
Test System: AMES SALMONELLA TYPHIMURIUM, Strain/Indicator: TA98, Metabolic Activation: HAMSTER, LIVER, S-9, AROCLOR 1254 (10 OR 30%), Method: PREINCUBATION
  mutagenic call: inactive; negative
[2]
  mutagenic call: inactive; negative
Test System: AMES SALMONELLA TYPHIMURIUM, Strain/Indicator: TA98, Metabolic Activation: RAT, LIVER, S-9, AROCLOR 1254 (10 OR 30%), Method: PREINCUBATION
  mutagenic call: inactive; negative
Test System: AMES SALMONELLA TYPHIMURIUM, Strain/Indicator: TA100, Metabolic Activation: HAMSTER, LIVER, S-9, AROCLOR 1254 (10 OR 30%), Method: PREINCUBATION
  mutagenic call: inactive; negative
[3]
  mutagenic call: inactive; negative
Test System: AMES SALMONELLA TYPHIMURIUM, Strain/Indicator: TA100, Metabolic Activation: RAT, LIVER, S-9, AROCLOR 1254 (10 OR 30%), Method: PREINCUBATION
  mutagenic call: inactive; negative
Test System: AMES SALMONELLA TYPHIMURIUM, Strain/Indicator: TA1535, Metabolic Activation: HAMSTER, LIVER, S-9, AROCLOR 1254 (10 OR 30%), Method: PREINCUBATION
  mutagenic call: inactive; negative
[4]
  mutagenic call: inactive; negative
Test System: AMES SALMONELLA TYPHIMURIUM, Strain/Indicator: TA1535, Metabolic Activation: RAT, LIVER, S-9, AROCLOR 1254 (10 OR 30%), Method: PREINCUBATION
  mutagenic call: inactive; negative

## COc1cccc2c1C(=O)c1c(O)c3c(c(O)c1C2=O)CC(O)(C(=O)CO)CC3OC1CC(N2CCOCC2C#N)C(O)C(C)O1 (stereo not drawn)
Test System: AMES SALMONELLA TYPHIMURIUM, Strain/Indicator: TA100, Metabolic Activation: RAT, LIVER, S-9, AROCLOR 1254
  mutagenic call: inactive; negative
[5]
  mutagenic call: active; positive
Test System: UDS RAT HEPATOCYTES, Strain/Indicator: THY INCORP, Metabolic Activation: NONE, Method: AUTOMATIC COLONY COUNTER
  mutagenic call: active; positive

## Cc1ccc(S(=O)(=O)OCc2ccccc2)cc1
[6]
  mutagenic call: inactive; negative

## CCc1cn([C@H]2C[C@H](O)[C@@H](CO)O2)c(=O)[nH]c1=O
[1]
  mutagenic call: inactive; negative
Test System: AMES SALMONELLA TYPHIMURIUM, Strain/Indicator: TA97, Metabolic Activation: RAT, LIVER, S-9, AROCLOR 1254, Method: PREINCUBATION
  mutagenic call: inactive; negative
[2]
  mutagenic call: inactive; negative
Test System: AMES SALMONELLA TYPHIMURIUM, Strain/Indicator: TA98, Metabolic Activation: NONE, Method: STANDARD PLATE
  mutagenic call: inactive; negative
Test System: AMES SALMONELLA TYPHIMURIUM, Strain/Indicator: TA98, Metabolic Activation: RAT, LIVER, S-9, AROCLOR 1254, Method: PREINCUBATION
  mutagenic call: inactive; negative
Test System: AMES SALMONELLA TYPHIMURIUM, Strain/Indicator: TA98, Metabolic Activation: RAT, LIVER, S-9, AROCLOR 1254, Method: STANDARD PLATE
  mutagenic call: inactive; negative
[3]
  mutagenic call: inactive; negative
[6]
  mutagenic call: inactive; negative
Test System: AMES SALMONELLA TYPHIMURIUM, Strain/Indicator: TA100, Metabolic Activation: RAT, LIVER, S-9, AROCLOR 1254, Method: PREINCUBATION
  mutagenic call: inactive; negative
Test System: AMES SALMONELLA TYPHIMURIUM, Strain/Indicator: TA100, Metabolic Activation: RAT, LIVER, S-9, AROCLOR 1254, Method: STANDARD PLATE
  mutagenic call: inactive; negative
Test System: AMES SALMONELLA TYPHIMURIUM, Strain/Indicator: TA102, Metabolic Activation: NONE, Method: PREINCUBATION
  mutagenic call: inactive; negative
Test System: AMES SALMONELLA TYPHIMURIUM, Strain/Indicator: TA102, Metabolic Activation: RAT, LIVER, S-9, AROCLOR 1254, Method: PREINCUBATION
  mutagenic call: inactive; negative
Test System: AMES SALMONELLA TYPHIMURIUM, Strain/Indicator: TA104, Metabolic Activation: NONE, Method: PREINCUBATION
  mutagenic call: inactive; negative
Test System: AMES SALMONELLA TYPHIMURIUM, Strain/Indicator: TA104, Metabolic Activation: RAT, LIVER, S-9, AROCLOR 1254, Method: PREINCUBATION
  mutagenic call: inactive; negative
[4]
  mutagenic call: inactive; negative
Test System: AMES SALMONELLA TYPHIMURIUM, Strain/Indicator: TA1535, Metabolic Activation: RAT, LIVER, S-9, AROCLOR 1254, Method: PREINCUBATION
  mutagenic call: inactive; negative
Test System: AMES SALMONELLA TYPHIMURIUM, Strain/Indicator: TA1537, Metabolic Activation: NONE, Method: PREINCUBATION
  mutagenic call: inactive; negative
Test System: AMES SALMONELLA TYPHIMURIUM, Strain/Indicator: TA1537, Metabolic Activation: NONE, Method: STANDARD PLATE
  mutagenic call: inactive; negative
Test System: AMES SALMONELLA TYPHIMURIUM, Strain/Indicator: TA1537, Metabolic Activation: RAT, LIVER, S-9, AROCLOR 1254, Method: PREINCUBATION
  mutagenic call: inactive; negative
Test System: AMES SALMONELLA TYPHIMURIUM, Strain/Indicator: TA1537, Metabolic Activation: RAT, LIVER, S-9, AROCLOR 1254, Method: STANDARD PLATE
  mutagenic call: inactive; negative
Test System: AMES SALMONELLA TYPHIMURIUM, Strain/Indicator: TA1538, Metabolic Activation: NONE, Method: PREINCUBATION
  mutagenic call: inactive; negative
Test System: AMES SALMONELLA TYPHIMURIUM, Strain/Indicator: TA1538, Metabolic Activation: RAT, LIVER, S-9, AROCLOR 1254, Method: PREINCUBATION
  mutagenic call: inactive; negative
[5]
  mutagenic call: inactive; negative

## CC(=O)OC/N=[N+](/C)[O-]
Test System: AMES SALMONELLA TYPHIMURIUM, Strain/Indicator: G46, Metabolic Activation: NONE, Method: PREINCUBATION
  mutagenic call: active; positive
Test System: AMES SALMONELLA TYPHIMURIUM, Strain/Indicator: TA1535, Metabolic Activation: NONE, Method: STANDARD PLATE
  mutagenic call: active; positive
Test System: CHINESE HAMSTER V-79, Strain/Indicator: V-79/OUABAIN, Metabolic Activation: NONE, Method: STANDARD PLATE
  mutagenic call: active; positive
Test System: E. COLI, Strain/Indicator: WP2 UVRA, Metabolic Activation: HAMSTER, LIVER, S-9, AROCLOR 1254, Method: PREINCUBATION
  mutagenic call: inactive; negative
Test System: E. COLI, Strain/Indicator: WP2 UVRA, Metabolic Activation: HAMSTER, LIVER, S-9, AROCLOR 1254, Method: STANDARD PLATE
  mutagenic call: inactive; negative
Test System: E. COLI, Strain/Indicator: WP2 UVRA, Metabolic Activation: HAMSTER, LIVER, S-9, Method: PREINCUBATION
  mutagenic call: inactive; negative
Test System: E. COLI, Strain/Indicator: WP2 UVRA, Metabolic Activation: HAMSTER, LIVER, S-9, Method: STANDARD PLATE
  mutagenic call: inactive; negative
Test System: E. COLI, Strain/Indicator: WP2 UVRA, Metabolic Activation: MOUSE, LIVER, S-9, AROCLOR 1254, Method: PREINCUBATION
  mutagenic call: inactive; negative
Test System: E. COLI, Strain/Indicator: WP2 UVRA, Metabolic Activation: MOUSE, LIVER, S-9, AROCLOR 1254, Method: STANDARD PLATE
  mutagenic call: inactive; negative
Test System: E. COLI, Strain/Indicator: WP2 UVRA, Metabolic Activation: MOUSE, LIVER, S-9, Method: PREINCUBATION
  mutagenic call: inactive; negative
Test System: E. COLI, Strain/Indicator: WP2 UVRA, Metabolic Activation: MOUSE, LIVER, S-9, Method: STANDARD PLATE
  mutagenic call: inactive; negative
Test System: E. COLI, Strain/Indicator: WP2 UVRA, Metabolic Activation: NONE, Method: PREINCUBATION
  mutagenic call: inactive; negative
Test System: E. COLI, Strain/Indicator: WP2 UVRA, Metabolic Activation: NONE, Method: STANDARD PLATE
  mutagenic call: inactive; negative
Test System: E. COLI, Strain/Indicator: WP2 UVRA, Metabolic Activation: RAT, LIVER, S-9, AROCLOR 1254, Method: PREINCUBATION
  mutagenic call: inactive; negative
Test System: E. COLI, Strain/Indicator: WP2 UVRA, Metabolic Activation: RAT, LIVER, S-9, AROCLOR 1254, Method: STANDARD PLATE
  mutagenic call: inactive; negative
Test System: E. COLI, Strain/Indicator: WP2 UVRA, Metabolic Activation: RAT, LIVER, S-9, Method: PREINCUBATION
  mutagenic call: inactive; negative
Test System: E. COLI, Strain/Indicator: WP2 UVRA, Metabolic Activation: RAT, LIVER, S-9, Method: STANDARD PLATE
  mutagenic call: inactive; negative
Test System: MOUSE LYMPHOMA, Strain/Indicator: L5178Y (TK+/TK-), Metabolic Activation: NONE, Method: SUSPENSION/PLATE
  mutagenic call: active; positive
Test System: MOUSE LYMPHOMA, Strain/Indicator: L5178Y (TK+/TK-), Metabolic Activation: RAT, LIVER, S-9, AROCLOR 1254, Method: SUSPENSION/PLATE
  mutagenic call: active; positive
